Series [1] has as its system shTop1 2215 relapsed tumor #4 cells. Kind of series: Ex vivo viability of relapsed tumor cells (propidium iodide exclusion flow cytometry). Particulars: treated ex-vivo for 24 hours. In kind it is cell-based, mice. An excerpt:
Viability, measured by propidium iodide exclusion flow cytometry, is plotted relative to untreated cells.

The subject of series [2] is Eμ-Myc Arf^−/− lymphoma cells. As to the kind of experiment: Apoptotic response / in vitro viability of lymphoma cells to doxorubicin. The format is cell-based, murine. Particulars: Mus musculus; apoptotic response within 24 hours.
Method: Competition and viability assays were performed according to the following protocols. 2 days post infection, lymphoma cells were split into replicate wells of 500,000 cells in 12 well plates. Following 24 hour treatments with a range of drug doses, the GFP positive percentage was quantified in the surviving cell population using a BD LSRII flow cytometer. The live cell population was gated via a forward scatter (FSC) versus side scatter (SSC) plotting. […] For in vitro cell viability assays, lymphoma cells were treated in triplicate at the indicated doses of doxorubicin/camptothecin. Viability was determined after 24 hours by an FSC versus SSC gate and plotted relative to untreated viability.
The conditions of series [3]: congestive heart failure, dilated cardiomyopathy, death; cited from earlier work.

Consider 2 molecules from patent US20080242622A1, “Identification of genetic alterations that modulate drug sensitivity in cancer treatments” (Cold Spring Harbor Laboratory, priority 2007, published 2008).

Molecules are shown by their SMILES. “And” between values parts separate entries of the source, which are not always exact repeats. Equal entries are not always repeated.

As to `N.N.[Cl][Pt][Cl]` [cisplatin], the “drug resistance of Top2A down-regulated relapse compared to control primary tumor” value in series [1] is recorded as “not cross-resistance to cisplatin”.

`COc1cccc2c1C(=O)c1c(O)c3c(c(O)c1C2=O)C[C@@](O)(C(=O)CO)C[C@@H]3O[C@H]1C[C@H](N)[C@H](O)[C@H](C)O1` [doxorubicin]: the half-inhibitory concentration (IC50) in series [2] is ~0.007 µg/mL and ~16 nM. Also, the “drug resistance of Top2A down-regulated relapse compared to control primary tumor” value in series [1] is “doxorubicin resistance”. Also, the “cumulative dose at which risks of cardiac side effects dramatically increase” value in series [3] is given as ≥ 550 mg/m^2.
